According to patent US11208412B2 (DAEGU-GYEONGBUK MEDICAL INNOVATION FOUNDATION, priority 2017, dated 2021):

What was measured:
Experiment in all cases: Kinase selectivity, DiscoverX scanMAX Kinase assay panel (% control)
Assay type in all cases: binding
[1] = molecular target: T1, kinases of the scanMAX Kinase assay panel (Homo sapiens, UniProt O43283); conditions: LZK; 1 uM
T1 construct: purchased DiscoverX Co. (contract measurement) scanMAX Kinase assay panel
T1 sequence (O43283 1-966): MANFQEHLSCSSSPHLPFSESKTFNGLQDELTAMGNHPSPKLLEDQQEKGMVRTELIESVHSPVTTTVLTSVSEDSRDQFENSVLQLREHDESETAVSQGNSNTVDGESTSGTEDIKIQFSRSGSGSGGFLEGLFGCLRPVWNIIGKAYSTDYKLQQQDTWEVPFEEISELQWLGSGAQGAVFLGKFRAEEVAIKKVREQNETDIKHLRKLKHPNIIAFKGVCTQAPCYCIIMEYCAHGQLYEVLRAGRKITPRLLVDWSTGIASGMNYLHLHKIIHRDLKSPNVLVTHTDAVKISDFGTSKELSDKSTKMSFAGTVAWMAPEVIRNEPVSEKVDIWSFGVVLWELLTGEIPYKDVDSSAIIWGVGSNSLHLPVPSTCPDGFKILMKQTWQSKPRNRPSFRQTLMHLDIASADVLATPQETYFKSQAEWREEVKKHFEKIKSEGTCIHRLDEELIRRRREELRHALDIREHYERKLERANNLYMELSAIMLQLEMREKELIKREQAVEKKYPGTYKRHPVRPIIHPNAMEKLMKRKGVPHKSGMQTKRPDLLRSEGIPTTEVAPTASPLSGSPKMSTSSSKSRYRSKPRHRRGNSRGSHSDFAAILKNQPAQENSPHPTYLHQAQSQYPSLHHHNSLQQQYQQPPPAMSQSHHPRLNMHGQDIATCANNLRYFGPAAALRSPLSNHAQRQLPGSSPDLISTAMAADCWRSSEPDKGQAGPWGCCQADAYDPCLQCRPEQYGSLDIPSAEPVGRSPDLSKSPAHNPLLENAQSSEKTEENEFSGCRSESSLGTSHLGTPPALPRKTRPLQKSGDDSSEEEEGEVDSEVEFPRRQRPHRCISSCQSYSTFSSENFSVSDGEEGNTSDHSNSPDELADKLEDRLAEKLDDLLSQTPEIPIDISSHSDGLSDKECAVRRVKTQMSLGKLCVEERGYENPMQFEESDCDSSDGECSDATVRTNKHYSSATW
Summary of the method: (§1)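 Each enzyme is treated with drug at 1 uM in DMSO, then signal is scaled between a positive control (0%) and DMSO (100%) to give % control. Kinases with % control under 35% are scored as inhibited.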

[2] = molecular target: T2, kinases of the scanMAX Kinase assay panel (Homo sapiens, UniProt P06241); conditions: FYN; 1 uM
T2 construct: purchased DiscoverX Co. (contract measurement) scanMAX Kinase assay panel
T2 sequence (P06241 whole entry): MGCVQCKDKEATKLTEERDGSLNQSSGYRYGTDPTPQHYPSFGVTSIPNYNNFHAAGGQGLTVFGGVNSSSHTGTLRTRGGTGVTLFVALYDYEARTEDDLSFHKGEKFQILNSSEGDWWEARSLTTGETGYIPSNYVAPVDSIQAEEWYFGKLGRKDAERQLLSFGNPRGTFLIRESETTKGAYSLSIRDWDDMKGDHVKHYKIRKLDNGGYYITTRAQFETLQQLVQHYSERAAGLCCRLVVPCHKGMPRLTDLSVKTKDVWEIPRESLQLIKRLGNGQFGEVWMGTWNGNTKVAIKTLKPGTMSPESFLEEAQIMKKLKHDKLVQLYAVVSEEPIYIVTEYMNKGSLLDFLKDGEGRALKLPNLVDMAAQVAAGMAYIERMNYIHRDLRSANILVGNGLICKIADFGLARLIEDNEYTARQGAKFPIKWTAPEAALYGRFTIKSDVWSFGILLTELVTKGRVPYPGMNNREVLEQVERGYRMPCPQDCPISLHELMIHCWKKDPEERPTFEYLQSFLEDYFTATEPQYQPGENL
Summary of the method: as §1

[3] = molecular target: T3, kinases of the scanMAX Kinase assay panel (Homo sapiens, UniProt P29320); conditions: EPHA3; 1 uM
T3 construct: purchased DiscoverX Co. (contract measurement) scanMAX Kinase assay panel
T3 sequence (P29320 21-983): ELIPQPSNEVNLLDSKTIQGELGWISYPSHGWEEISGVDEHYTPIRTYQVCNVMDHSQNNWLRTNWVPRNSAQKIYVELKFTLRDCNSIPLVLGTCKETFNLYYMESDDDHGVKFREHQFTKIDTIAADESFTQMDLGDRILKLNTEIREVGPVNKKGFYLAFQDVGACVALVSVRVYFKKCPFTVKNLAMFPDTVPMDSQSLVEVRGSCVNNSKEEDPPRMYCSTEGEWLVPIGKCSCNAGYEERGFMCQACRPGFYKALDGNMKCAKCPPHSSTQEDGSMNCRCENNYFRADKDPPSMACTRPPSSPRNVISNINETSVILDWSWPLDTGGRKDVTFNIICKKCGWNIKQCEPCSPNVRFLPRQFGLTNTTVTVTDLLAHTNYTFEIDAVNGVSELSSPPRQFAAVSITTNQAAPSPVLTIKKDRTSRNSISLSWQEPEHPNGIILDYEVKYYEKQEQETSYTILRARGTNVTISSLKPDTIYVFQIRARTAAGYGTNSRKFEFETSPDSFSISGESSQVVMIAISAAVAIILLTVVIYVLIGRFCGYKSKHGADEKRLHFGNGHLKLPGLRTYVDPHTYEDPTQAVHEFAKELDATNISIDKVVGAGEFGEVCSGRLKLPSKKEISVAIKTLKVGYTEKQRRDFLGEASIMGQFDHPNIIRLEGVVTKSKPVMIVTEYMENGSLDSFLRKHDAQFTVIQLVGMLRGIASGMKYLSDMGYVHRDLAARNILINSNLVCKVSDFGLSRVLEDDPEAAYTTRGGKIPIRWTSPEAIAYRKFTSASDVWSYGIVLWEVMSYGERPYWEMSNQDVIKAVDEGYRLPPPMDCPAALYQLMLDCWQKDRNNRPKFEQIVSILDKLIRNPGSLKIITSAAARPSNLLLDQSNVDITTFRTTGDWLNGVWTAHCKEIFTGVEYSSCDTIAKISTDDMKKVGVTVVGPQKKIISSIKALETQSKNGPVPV
Summary of the method: as §1

[4] = molecular target: T4, kinases of the scanMAX Kinase assay panel (Homo sapiens, UniProt P37173); conditions: kinase TGFBR2; 1 uM in DMSO
T4 construct: purchased DiscoverX Co. (contract measurement) scanMAX Kinase assay panel
T4 sequence (P37173 23-567): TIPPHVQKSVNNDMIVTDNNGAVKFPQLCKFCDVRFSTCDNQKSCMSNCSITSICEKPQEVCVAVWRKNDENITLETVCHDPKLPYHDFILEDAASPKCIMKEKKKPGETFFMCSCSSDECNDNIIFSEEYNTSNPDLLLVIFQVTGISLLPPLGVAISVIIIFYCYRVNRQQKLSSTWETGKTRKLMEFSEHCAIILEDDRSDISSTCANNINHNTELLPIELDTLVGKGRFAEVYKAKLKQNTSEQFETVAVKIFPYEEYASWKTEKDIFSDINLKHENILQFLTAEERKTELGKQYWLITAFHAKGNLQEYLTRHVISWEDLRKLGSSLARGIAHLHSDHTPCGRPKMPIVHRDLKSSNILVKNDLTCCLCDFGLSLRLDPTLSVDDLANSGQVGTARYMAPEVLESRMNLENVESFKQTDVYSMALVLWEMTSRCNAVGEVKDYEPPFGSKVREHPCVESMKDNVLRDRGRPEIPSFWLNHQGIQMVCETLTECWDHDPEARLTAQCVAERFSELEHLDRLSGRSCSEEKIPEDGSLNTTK
Summary of the method: as §1

[5] = molecular target: T5, kinases of the scanMAX Kinase assay panel (Homo sapiens, UniProt Q16620); conditions: kinase TRKB; 1 uM in DMSO
T5 construct: purchased DiscoverX Co. (contract measurement) scanMAX Kinase assay panel
T5 sequence (Q16620 32-822): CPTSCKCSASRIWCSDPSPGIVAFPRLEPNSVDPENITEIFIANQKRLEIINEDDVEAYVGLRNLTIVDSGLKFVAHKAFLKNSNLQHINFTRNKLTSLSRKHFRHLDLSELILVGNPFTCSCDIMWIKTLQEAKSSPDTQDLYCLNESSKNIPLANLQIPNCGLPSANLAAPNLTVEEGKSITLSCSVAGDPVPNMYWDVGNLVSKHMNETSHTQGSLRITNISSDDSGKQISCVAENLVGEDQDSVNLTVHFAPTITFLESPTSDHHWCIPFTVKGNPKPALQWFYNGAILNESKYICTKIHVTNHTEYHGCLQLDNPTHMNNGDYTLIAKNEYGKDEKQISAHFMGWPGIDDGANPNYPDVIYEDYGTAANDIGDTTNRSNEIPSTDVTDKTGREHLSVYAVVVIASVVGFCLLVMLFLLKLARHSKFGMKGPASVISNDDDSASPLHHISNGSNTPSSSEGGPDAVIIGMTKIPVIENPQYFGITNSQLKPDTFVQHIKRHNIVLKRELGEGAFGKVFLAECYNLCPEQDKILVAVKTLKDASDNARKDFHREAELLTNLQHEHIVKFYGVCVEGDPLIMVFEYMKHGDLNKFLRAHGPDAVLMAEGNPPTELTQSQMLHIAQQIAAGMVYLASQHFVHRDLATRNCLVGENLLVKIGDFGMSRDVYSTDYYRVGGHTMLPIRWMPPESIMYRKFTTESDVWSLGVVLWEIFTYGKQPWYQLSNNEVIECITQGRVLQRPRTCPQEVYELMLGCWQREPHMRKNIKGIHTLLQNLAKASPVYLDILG
Summary of the method: as §1

SMILES	remaining binding at 1 µM [1]	remaining binding at 1 µM [2]	remaining binding at 1 µM [3]	remaining binding at 1 µM [4]	remaining binding at 1 µM [5]
CCNc1nc(Nc2ccc(C(=O)N3CCC(N4CCOCC4)CC3)cc2OC)nc2[nH]cc(C(F)(F)F)c12 [Example 104, (4-((4-(ethylamino)-5-(trifluoromethyl)-7H-pyrrolo[2,3-d]pyrimidine-2-yl)amino)-3-methoxyphenyl)(4-morpholinopiperidine-1-yl)methanone]	100%	100%	92%	96%	100%
CC1(Nc2nc(Nc3cnn([C@H]4CCN(C5COC5)C[C@@H]4F)c3Cl)nc3[nH]cc(C#N)c23)CC1 [Example 52, 2-((5-chloro-1-((3S,4S)-3-fluoro-1-(oxetane-3-yl)piperidine-4-yl)-1H-pyrazole-4-yl)amino)((1-methylcyclopropyl)amino)-7H-pyrrolo[2,3-d]pyrimidine-5-carbonitrile]	16%	19%	18%	100%	7.5%
CNc1nc(Nc2ccc(C(=O)N3CCOCC3)cc2OC)nc2[nH]cc(C#N)c12 [Example 1, 2-((2-methoxy-4-(morpholine-4-carbonyl)phenyl)amino)-4-(methylamino)-7H-pyrrolo[2,3-d]pyrimidine-5-carbonitrile]	81%	100%	92%	82%	61%
